Measured values: patent publication US11638707B2, “Substituted amino triazoles useful as chitinase inhibitors” (Molecure S.A., priority 2019, dated 2023)
pIC50: −log10 of the molar value. Structures can show the parent of a compound that is named as a salt.

What was measured:
hERG channel = hERG channel (Homo sapiens (Human), UniProt Q12809); assay: Human ERG channel binding assay (fluorescence polarization); conditions: Table 1; tracer displacement, 4 h at room temperature
Protocol: Human ERG Channel Binding Assay
Fluorescence polarization assay based on the principle of fluorescence polarization where a red-shifted fluorescent tracer is displaced from the hERG channel by compounds that bind to the channel was used to establish the binding of the compounds to hERG channel. […] Briefly, the compounds in serial dilutions were incubated with a membrane fraction containing hERG channel protein and a high-affinity red fluorescent hERG channel ligand in black 384-well plate. […] The IC50 values were calculated using GraphPad Prism.

recombinant human CHIT1 = recombinant human CHIT1 (Homo sapiens (Human), UniProt Q13231); assay: Human CHIT1 activity assay; assay type: biochemical; conditions: recombinant human CHIT1, citrate buffer pH 5.2, 37° C., 60 minutes; read-out: hCHIT1, IC50
recombinant human CHIT1, sequence (Q13231 22-466): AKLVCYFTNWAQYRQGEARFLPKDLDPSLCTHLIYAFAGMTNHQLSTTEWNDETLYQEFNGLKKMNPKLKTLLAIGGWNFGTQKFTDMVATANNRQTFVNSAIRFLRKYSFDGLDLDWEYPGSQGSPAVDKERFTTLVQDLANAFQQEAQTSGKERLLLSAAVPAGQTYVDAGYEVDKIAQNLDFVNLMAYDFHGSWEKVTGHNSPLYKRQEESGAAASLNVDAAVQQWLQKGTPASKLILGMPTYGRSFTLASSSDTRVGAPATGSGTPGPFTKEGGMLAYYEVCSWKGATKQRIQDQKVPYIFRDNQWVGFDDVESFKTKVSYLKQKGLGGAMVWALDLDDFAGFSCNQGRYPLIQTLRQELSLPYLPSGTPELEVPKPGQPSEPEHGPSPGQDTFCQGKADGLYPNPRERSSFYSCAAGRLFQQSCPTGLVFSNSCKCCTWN
Protocol: (§1) The assay was run in the 96-well plate format, each reaction in the total volume of 100 μL. 4-methylumbelliferyl β-D-N,N′,N″-triacetylchitotriose was used as a substrate for the enzyme. Upon hydrolysis by CHIT1, the substrate releases 4-methylumbelliferyl (4MU) that, when ionized in basic pH, emits fluorescence at 460 nm. Briefly, 40 μL of a substrate was added to each well, followed by 10 μL of compound dilution and 50 μL of CHIT1 recombinant enzyme solution. The reaction was carried out in citrate buffer, pH 5.2, in the dark, at 37° C. for 60 minutes with shaking. […] The IC50 values were calculated using GraphPad Prism.

recombinant human AMCase = recombinant human AMCase (Homo sapiens (Human), UniProt Q9BZP6); assay: Human AMCase activity assay; assay type: biochemical; conditions: citrate buffer pH 5.2, 37° C., 60 minutes, read-out: hAMCase, IC50
recombinant human AMCase, sequence (Q9BZP6 22-476): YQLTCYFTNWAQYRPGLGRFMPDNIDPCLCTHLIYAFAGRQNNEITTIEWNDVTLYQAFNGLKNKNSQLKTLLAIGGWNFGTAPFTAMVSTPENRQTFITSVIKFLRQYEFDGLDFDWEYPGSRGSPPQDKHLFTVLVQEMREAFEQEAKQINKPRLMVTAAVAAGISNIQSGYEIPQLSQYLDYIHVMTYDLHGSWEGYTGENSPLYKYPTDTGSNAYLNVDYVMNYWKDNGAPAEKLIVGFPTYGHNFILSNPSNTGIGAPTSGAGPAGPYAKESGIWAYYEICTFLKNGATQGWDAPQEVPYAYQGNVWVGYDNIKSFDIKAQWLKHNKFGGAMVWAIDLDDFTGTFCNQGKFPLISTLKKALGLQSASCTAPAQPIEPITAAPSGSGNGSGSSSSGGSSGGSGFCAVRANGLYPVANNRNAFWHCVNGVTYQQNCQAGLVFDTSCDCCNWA
Protocol: as §1, with “4-Methylumbelliferyl B-D-N,N′-diacetylchitobioside hydrate” for “4-methylumbelliferyl β-D-N,N′,N″-triacetylchitotriose”, “AMCase,” for “CHIT1,”, “hAMCase” for “CHIT1”

hERG channel, sequence (Q12809 whole entry): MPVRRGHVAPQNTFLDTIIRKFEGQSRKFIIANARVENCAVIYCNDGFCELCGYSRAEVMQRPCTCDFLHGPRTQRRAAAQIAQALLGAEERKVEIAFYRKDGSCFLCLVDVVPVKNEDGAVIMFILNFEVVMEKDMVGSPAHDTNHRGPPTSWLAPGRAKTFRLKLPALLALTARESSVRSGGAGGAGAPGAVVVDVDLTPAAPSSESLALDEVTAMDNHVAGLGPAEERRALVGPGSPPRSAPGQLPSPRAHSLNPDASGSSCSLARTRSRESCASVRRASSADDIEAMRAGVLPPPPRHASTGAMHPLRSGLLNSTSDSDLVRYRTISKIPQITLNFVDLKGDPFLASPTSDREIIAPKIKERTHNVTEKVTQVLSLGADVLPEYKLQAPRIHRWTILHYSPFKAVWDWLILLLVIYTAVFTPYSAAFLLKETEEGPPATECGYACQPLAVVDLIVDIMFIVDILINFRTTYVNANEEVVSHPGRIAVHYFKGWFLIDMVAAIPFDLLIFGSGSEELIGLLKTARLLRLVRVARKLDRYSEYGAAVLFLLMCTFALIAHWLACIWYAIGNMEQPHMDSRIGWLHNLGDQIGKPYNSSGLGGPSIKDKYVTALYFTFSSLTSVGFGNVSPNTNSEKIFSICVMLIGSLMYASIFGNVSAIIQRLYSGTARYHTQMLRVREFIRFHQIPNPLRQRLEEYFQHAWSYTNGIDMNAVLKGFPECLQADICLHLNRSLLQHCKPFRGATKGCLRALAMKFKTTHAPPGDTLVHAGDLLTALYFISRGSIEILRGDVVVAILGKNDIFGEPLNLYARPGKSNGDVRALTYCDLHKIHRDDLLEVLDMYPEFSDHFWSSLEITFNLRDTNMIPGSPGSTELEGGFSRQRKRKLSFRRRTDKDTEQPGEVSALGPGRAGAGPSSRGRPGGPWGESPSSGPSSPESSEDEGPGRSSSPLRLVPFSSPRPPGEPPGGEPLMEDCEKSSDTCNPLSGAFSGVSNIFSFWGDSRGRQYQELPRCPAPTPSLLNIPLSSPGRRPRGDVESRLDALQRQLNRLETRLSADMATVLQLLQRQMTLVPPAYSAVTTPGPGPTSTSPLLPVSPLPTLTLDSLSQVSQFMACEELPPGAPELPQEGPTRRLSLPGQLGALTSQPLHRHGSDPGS

Row | Structure (SMILES) | pIC50 (recombinant human CHIT1) | pIC50 (recombinant human AMCase) | pIC50 (hERG channel)
1 | CC(C)(F)[C@H]1CN(C2CCN(c3nnc(N)[nH]3)CC2)[C@@H](Cc2ccc(Cl)cc2)CO1 [Example 1, 5-(4-((2R,5S)-5-(4-chlorobenzyl)-2-(2-fluoropropan-2-yl)morpholino)piperidin-1-yl)-4H-1,2,4-triazol-3-amine 2,2,2-trifluoroacetate] | > 7.00 | > 7.00 | 4.00 to 4.60
2 | Nc1nnc(N2CCC(N3C[C@H](C(F)F)OC[C@@H]3Cc3ccc(Cl)cc3)CC2)[nH]1 [Example 2, 5-(4-((2R,5S)-5-(4-chlorobenzyl)-2-(difluoromethyl)morpholino)piperidin-1-yl)-4H-1,2,4-triazol-3-amine 2,2,2-trifluoroacetate] | > 7.00 | > 7.00 | < 4.00
3 | Nc1nnc(N2CCC(N3C[C@H](CF)OC[C@@H]3Cc3ccc(Cl)cc3)CC2)[nH]1 [Example 3, 5-(4-((2R,5S)-5-(4-chlorobenzyl)-2-(fluoromethyl)morpholino)piperidin-1-yl)-4H-1,2,4-triazol-3-amine 2,2,2-trifluoroacetate] | > 7.00 | > 7.00 | < 4.00
4 | Nc1nnc(N2CCC(N3C[C@H](Cc4nn[nH]n4)OC[C@@H]3Cc3ccc(Cl)cc3)CC2)[nH]1 [Example 4, 5-(4-((2S,5S)-2-((2H-tetrazol-5-yl)methyl)-5-(4-chlorobenzyl)morpholino)-piperidin-1-yl)-4H-1,2,4-triazol-3-amine 2,2,2-trifluoroacetate] | > 7.00 | > 7.00 | < 4.00
5 | Cn1nnc(C[C@H]2CN(C3CCN(c4nnc(N)[nH]4)CC3)[C@@H](Cc3ccc(Cl)cc3)CO2)n1 [Example 5, 5-(4-((2S,5S)-5-(4-chlorobenzyl)-2-((2-methyl-2H-tetrazol-5-yl)methyl)-morpholino)piperidin-1-yl)-4H-1,2,4-triazol-3-amine 2,2,2-trifluoroacetate] | > 7.00 | > 7.00 | 4.00 to 4.60
6 | N#CC[C@H]1CN(C2CCN(c3nnc(N)[nH]3)CC2)[C@@H](Cc2ccc(Cl)cc2)CO1 [Example 6, 2-((2S,5S)-4-(1-(5-amino-4H-1,2,4-triazol-3-yl)piperidin-4-yl)-5-(4-chlorobenzyl)-morpholin-2-yl)acetonitrile 2,2,2-trifluoroacetate] | > 7.00 | > 7.00 | < 4.00
7 | Nc1nnc(N2CCC(N3C[C@H](CN4CCCC4=O)OC[C@@H]3Cc3ccc(Cl)cc3)CC2)[nH]1 [Example 7, 1-(((2R,5S)-4-(1-(5-amino-4H-1,2,4-triazol-3-yl)piperidin-4-yl)-5-(4-chlorobenzyl)-morpholin-2-yl)methyl)pyrrolidin-2-one 2,2,2-trifluoroacetate] | > 7.00 | > 7.00 | < 4.00
8 | N#Cc1cnn(C[C@H]2CN(C3CCN(c4nnc(N)[nH]4)CC3)[C@@H](Cc3ccc(Cl)cc3)CO2)c1 [Example 8, 1-(((2R,5S)-4-(1-(5-amino-4H-1,2,4-triazol-3-yl)piperidin-4-yl)-5-(4-chlorobenzyl)-morpholin-2-yl)methyl)-1H-pyrazole-4-carbonitrile 2,2,2-trifluoroacetate] | > 7.00 | > 7.00 | 4.00 to 4.60
9 | Cn1ccc([C@H]2CN(C3CCN(c4nnc(N)[nH]4)CC3)[C@@H](Cc3ccc(Cl)cc3)CO2)n1 [Example 9, 5-(4-((2R,5S)-5-(4-chlorobenzyl)-2-(1-methyl-1H-pyrazol-3-yl)morpholino)-piperidin-1-yl)-4H-1,2,4-triazol-3-amine 2,2,2-trifluoroacetate] | > 7.00 | > 7.00 | < 4.00
10 | Cn1nccc1[C@H]1CN(C2CCN(c3nnc(N)[nH]3)CC2)[C@@H](Cc2ccc(Cl)cc2)CO1 [Example 10, 5-(4-((2R,5S)-5-(4-chlorobenzyl)-2-(1-methyl-1H-pyrazol-5-yl)morpholino)piperidin-1-yl)-4H-1,2,4-triazol-3-amine 2,2,2-trifluoroacetate] | > 7.00 | > 7.00 | < 4.00
11 | Cc1cc([C@H]2CN(C3CCN(c4nnc(N)[nH]4)CC3)[C@@H](Cc3ccc(Cl)cc3)CO2)nn1C [Example 11, 5-(4-((2R,5S)-5-(4-chlorobenzyl)-2-(1,5-dimethyl-1H-pyrazol-3-yl)morpholino)-piperidin-1-yl)-4H-1,2,4-triazol-3-amine 2,2,2-trifluoroacetate] | > 7.00 | > 7.00 | < 4.00
12 | Nc1nnc(N2CCC(N3C[C@H](c4ccn[nH]4)OC[C@@H]3Cc3ccc(Cl)cc3)CC2)[nH]1 [Example 12, 5-(4-((2R,5S)-5-(4-chlorobenzyl)-2-(1H-pyrazol-5-yl)morpholino)piperidin-1-yl)-4H-1,2,4-triazol-3-amine 2,2,2-trifluoroacetate] | > 7.00 | > 7.00 | < 4.00

The next lines start with results.

Row | pIC50 (recombinant human CHIT1) | pIC50 (recombinant human AMCase) | Structure (SMILES) | pIC50 (hERG channel)
13 | > 7.00 | > 7.00 | CC(F)[C@H]1CN(C2CCN(c3nnc(N)[nH]3)CC2)[C@@H](Cc2ccc(Cl)cc2)CO1 (relative stereo) [Example 20, 5-(4-((2R,5S)-5-(4-chlorobenzyl)-2-(1-fluoroethyl)morpholino)piperidin-1-yl)-4H-1,2,4-triazol-3-amine 2,2,2-trifluoroacetate] | < 4.00
14 | > 7.00 | > 7.00 | C[C@@H]([C@H]1CN(C2CCN(c3nnc(N)[nH]3)CC2)[C@@H](Cc2ccc(Cl)cc2)CO1)n1cccn1 [Example 18, 5-(4-((2R,5S)-2-((S)-1-(1H-pyrazol-1-yl)ethyl)-5-(4-chlorobenzyl)morpholino)-piperidin-1-yl)-4H-1,2,4-triazol-3-amine 2,2,2-trifluoroacetate] | 
15 | > 7.00 | > 7.00 | C[C@H]([C@H]1CN(C2CCN(c3nnc(N)[nH]3)CC2)[C@@H](Cc2ccc(Cl)cc2)CO1)n1cccn1 [Example 19, 5-(4-((2R,5S)-2-((R)-1-(1H-pyrazol-1-yl)ethyl)-5-(4-chlorobenzyl)morpholino)-piperidin-1-yl)-4H-1,2,4-triazol-3-amine 2,2,2-trifluoroacetate] | 
16 | > 7.00 | > 7.00 | Nc1nnc(N2CCC(N3C[C@H](CN4CCCCC4=O)OC[C@@H]3Cc3ccc(Cl)cc3)CC2)[nH]1 [Example 35, 1-(((2R,5S)-4-(1-(5-amino-4H-1,2,4-triazol-3-yl)piperidin-4-yl)-5-(4-chlorobenzyl)-morpholin-2-yl)methyl)piperidin-2-one 2,2,2-trifluoroacetate] | 
17 | > 7.00 | > 7.00 | Nc1nnc(N2CCC(N3C[C@H](CN4CCC(F)(F)CC4)OC[C@@H]3Cc3ccc(Cl)cc3)CC2)[nH]1 [Example 38, 5-(4-((2S,5S)-5-(4-chlorobenzyl)-2-((4,4-difluoropiperidin-1-yl)methyl)-morpholino)piperidin-1-yl)-4H-1,2,4-triazol-3-amine 2,2,2-trifluoroacetate] | 
18 | > 7.00 | > 7.00 | Nc1nnc(N2CCC(N3C[C@H](COC(F)F)OC[C@@H]3Cc3ccc(Cl)cc3)CC2)[nH]1 [Example 40, 5-(4-((2R,5S)-5-(4-chlorobenzyl)-2-((difluoromethoxy)methyl)morpholino)-piperidin-1-yl)-4H-1,2,4-triazol-3-amine 2,2,2-trifluoroacetate] | 
19 | > 7.00 | > 7.00 | CC(F)(F)[C@H]1CN(C2CCN(c3nnc(N)[nH]3)CC2)[C@@H](Cc2ccc(Cl)cc2)CO1 [Example 42, 5-(4-((2R,5S)-5-(4-chlorobenzyl)-2-(1,1-difluoroethyl)morpholino)piperidin-1-yl)-4H-1,2,4-triazol-3-amine dihydrochloride] | 
20 | > 7.00 | > 7.00 | Nc1nnc(N2CCC(N3C[C@H](COCC(F)F)OC[C@@H]3Cc3ccc(Cl)cc3)CC2)[nH]1 [Example 43, 5-(4-((2R,5S)-5-(4-chlorobenzyl)-2-((2,2-difluoroethoxy)methyl)morpholino)-piperidin-1-yl)-4H-1,2,4-triazol-3-amine 2,2,2-trifluoroacetate] | 
21 | > 7.00 | > 7.00 | Nc1nnc(N2CCC(N3C[C@H](O)CC[C@@H]3Cc3ccc(Cl)cc3)CC2)[nH]1 [Example 70, (3R,6R)-1′-(5-amino-4H-1,2,4-triazol-3-yl)-6-(4-chlorobenzyl)-[1,4′-bipiperidin]-3-ol 2,2,2-trifluoroacetate] | 
22 | 6.00 to 7.00 | > 7.00 | Nc1nnc(N2CCC(N3CC4CC4C[C@@H]3Cc3ccc(Cl)cc3)CC2)[nH]1 (stereo partly drawn) [Example 72, 5-(4-((4R)-4-(4-chlorobenzyl)-3-azabicyclo[4.1.0]heptan-3-yl)piperidin-1-yl)-4H-1,2,4-triazol-3-amine 2,2,2-trifluoroacetate] | 
